In one assay the test system is MDA-MB-231. The experiment in a line: Anticancer activity against human MDA-MB-231 cells assessed as growth inhibition incubated for 48 hrs by MTT assay. The note with it: MDA-MB-231, 48 h. In kind it is functional, cell-based. Background: Formazan colour is commonly taken as a measure of viable cells.
The test system of another assay is HepG2. The experiment in a line: Anticancer activity against human HepG2 cells assessed as growth inhibition incubated for 48 hrs by MTT assay. Format: functional, cell-based. The following applies: HepG2, 48 h.
A further assay concerns HeLa. Description: Anticancer activity against human HeLa cells assessed as growth inhibition incubated for 48 hrs by MTT assay. Format: functional, cell-based.
A further assay has as its system A549. The experiment in a line: Anticancer activity against human A549 cells assessed as growth inhibition incubated for 48 hrs by MTT assay. Format: functional, cell-based. The following applies: A549, 48 h.
The subject of another assay is U-87 MG. The experiment in a line: Anticancer activity against human U-87 MG cells assessed as growth inhibition incubated for 48 hrs by MTT assay. In kind it is functional, cell-based, U-87MG ATCC.
For the next assay, the system named is SK-MEL-28. Description: Anticancer activity against human SK-MEL-28 cells assessed as growth inhibition incubated for 48 hrs by MTT assay. In kind it is functional, cell-based. The following applies: SK-MEL-28, 48 h.
The subject of another assay is DU-145. Description: Anticancer activity against human DU-145 cells assessed as growth inhibition incubated for 48 hrs by MTT assay. In kind it is functional, cell-based. The following applies: DU-145, 48 h.
A further assay has as its system HEK293. Description: Anticancer activity against human HEK293 cells assessed as growth inhibition incubated for 48 hrs by MTT assay. In kind it is cell-based. The following applies: HEK293, 48 h.
For another assay, the system named is NIH3T3. Description: Anticancer activity against mouse NIH3T3 cells assessed as growth inhibition incubated for 48 hrs by MTT assay. In kind it is cell-based. The following applies: NIH3T3, 48 h.

SMILES strings stand for the structures.

For the molecule `Clc1ccc(-c2nc3sc4ccccc4n3c2Sc2ccccc2)cc1`, the concentration for half-maximal inhibition (IC50) in the assay with MDA-MB-231 was 72.1 µM; in the assay on HepG2, 57.8 µM; with HeLa, 64.1 µM; in the assay on A549, 75.1 µM; in the assay on U-87 MG, more than 100 µM; with SK-MEL-28, more than 100 µM. Also, the IC50 with DU-145 was 78 µM; in the assay with HEK293, more than 100 µM; with NIH3T3 it was more than 100 µM.

Regarding `Clc1ccc(Sc2c(-c3ccccc3)nc3ccccn23)cc1`, the IC50 with MDA-MB-231 turned out to be 57.6 µM; in the assay with HepG2, 16.9 µM; in the assay with HeLa, 36.6 µM; in the assay with A549, 27.7 µM; with U-87 MG it was 62.8 µM; in the assay with SK-MEL-28, 74 µM. Besides, the values for the IC50 in the assay on DU-145, in the assay on HEK293 and in the assay on NIH3T3 were 76.7 µM, 91.4 µM and 88.7 µM, respectively.

For the molecule `c1ccc(Sc2c(-c3ccccc3)nc3ccc(-c4ccccc4)cn23)cc1`, the IC50 in the assay with MDA-MB-231 was 76.7 µM; in the assay with HepG2, 47.8 µM; in the assay on HeLa it was 72.6 µM; with A549, 54.2 µM; in the assay with U-87 MG, more than 100 µM; with SK-MEL-28, more than 100 µM. For the same molecule, the IC50 was 71.7 µM with DU-145, more than 100 µM in the assay on HEK293 and more than 100 µM in the assay on NIH3T3.

For `CS(=O)(=O)c1ccc(-c2nc3ccccn3c2Sc2cccc3ccccc23)cc1`, the IC50 with MDA-MB-231 worked out at 24.1 µM; in the assay with HepG2 it was 13.6 µM; in the assay on HeLa, 34.6 µM; with A549, 19.6 µM; in the assay on U-87 MG, 56.2 µM; in the assay with SK-MEL-28, 67.3 µM. Besides, the half-inhibitory concentration (IC50) in the assay with DU-145 was found to be 20.8 µM; in the assay with HEK293 it was 83.2 µM; in the assay on NIH3T3, 86.4 µM.

In the case of `CS(=O)(=O)c1ccc(-c2nc3ccccn3c2Sc2ccccc2)cc1`, the concentration for half-maximal inhibition (IC50) is 72.7 µM with MDA-MB-231; 13.2 µM in the assay on HepG2; 70.6 µM with HeLa; 23.2 µM in the assay with A549; 77.2 µM in the assay with U-87 MG; 61.9 µM in the assay on SK-MEL-28. Moreover, the IC50 in the assay on DU-145 was 67.8 µM; in the assay on HEK293 it was more than 100 µM; in the assay with NIH3T3 it was more than 100 µM.

As for `COc1cccc(OC)c1-c1nc2ccccn2c1Sc1ccccc1`, the IC50 with MDA-MB-231 is 75.6 µM; in the assay on HepG2 it was 19.5 µM; in the assay on HeLa it was 32.2 µM; in the assay on A549 it was 21.5 µM; in the assay on U-87 MG, more than 100 µM; in the assay with SK-MEL-28, more than 100 µM. Also, the IC50 in the assay with DU-145 is 22.4 µM; in the assay on HEK293 it was more than 100 µM; in the assay with NIH3T3 it was more than 100 µM.

On to `N#Cc1ccc(-c2nc3ccccn3c2Sc2ccccc2)cc1`, for which the IC50 was found to be 17.8 µM in the assay with MDA-MB-231; 15.7 µM in the assay on HepG2; 64.2 µM in the assay with HeLa; 35.2 µM in the assay with A549; 65.5 µM with U-87 MG; 67.5 µM in the assay on SK-MEL-28. The IC50 is 76.5 µM with DU-145, more than 100 µM in the assay with HEK293 and more than 100 µM in the assay on NIH3T3.

As for `COc1cccc2c1C(=O)c1c(O)c3c(c(O)c1C2=O)C[C@@](O)(C(=O)CO)C[C@@H]3O[C@H]1C[C@H](N)[C@H](O)[C@H](C)O1` [DOXORUBICIN], the half-inhibitory concentration (IC50) in the assay with MDA-MB-231 worked out at 1.6 µM; in the assay with HepG2 it was 1.8 µM; with HeLa, 2.1 µM; with U-87 MG, 1.7 µM; in the assay with SK-MEL-28, 1.8 µM; with DU-145, 1.4 µM.

Turning to `Clc1ccc2nc(-c3ccccc3)c(Sc3ccccc3)n2c1`, the IC50 with MDA-MB-231 was 55.8 µM; in the assay with HepG2, 15.7 µM; with HeLa, 29.3 µM; in the assay with A549, 24.4 µM; in the assay with U-87 MG it was more than 100 µM; with SK-MEL-28 it was 76.9 µM. Also, the IC50 in the assay on DU-145 was 56.3 µM; in the assay on HEK293, more than 100 µM; with NIH3T3 it was more than 100 µM.

As to `Clc1ccc(Sc2c(-c3cccs3)nc3ccccn23)cc1`, the IC50 was 73.1 µM in the assay with MDA-MB-231; 59.3 µM with HepG2; 74.1 µM with HeLa; 69.8 µM in the assay with A549; more than 100 µM with U-87 MG; 77.3 µM in the assay with SK-MEL-28. The IC50 came to 92.3 µM in the assay on DU-145, 93 µM in the assay with HEK293 and 86.1 µM with NIH3T3.

In general, IC50 refers to the concentration that gives 50% inhibition.

(Values after ChEMBL document CHEMBL4823300, “Design, synthesis and anticancer activity of sulfenylated imidazo-fused heterocycles” (Bioorg Med Chem Lett, 2021).)
